Test results from article PMC8206213, “An L-2-hydroxyglutarate biosensor based on specific transcriptional regulator LhgR” (Nature Communications, 2021).
Where “and” joins values, the source holds several entries; their conditions need not be identical. Equal entries are not always repeated.

Tests used:
[1] = tested on: LHGFR0N3C expressed in HEK293FT cells; assay: Specificity of LHGFR0N3C expressed in permeabilized HEK293FT cells, 1 mM compounds; type: cell-based, human (HEK293FT cells); conditions: 1 mM compound, cells permeabilized with 10 μM digitonin, normalized to control
Description: To characterize the sensitivity and specificity of LHGFR expressed in HEK293FT cells, cells were trypsinized 48 h following transfection and suspended in 1× Hank’s balanced salt solution supplemented with 20 mM HEPES. […] Digitonin at a concentration of 10 μM was used to induce cell permeabilization and deplete intracellular L-2-HG for in vivo response curves construction. Then, the fluorescence intensities were determined by a SpectraMax i3 fluorescence plate reader (Molecular Devices, USA) with excitation at 430 nm and emission at 485 nm (mTFP) and 528 nm (Venus). Basal L-2-HG concentration in HEK293FT cells under physiological conditions was determined by substituting the emission ratios of non-permeabilized HEK293FT cells into the calibrated in vivo response curves.

LHGFR0N3C = assay: Influence of other compounds on the response of purified LHGFR0N3C to L-2-HG; type: binding, Pseudomonas putida W619; conditions: for Emission ratio: Suppl. Fig. 9a, L-2-HG alone or with the compound, three replicates
Description: Purified L-2-HG biosensors and different compounds were diluted by 50 mM Tris-HCl buffer (pH 7.4), mixed together in a black 96-well plate at a volume ratio of 3:1, and the fluorescence intensities were measured using an EnSight microplate reader (PerkinElmer, USA) with excitation at 430 nm, emission at 485 nm (mTFP) and 528 nm (Venus). […] The [L-2-HG], Kd, and p refer to the L-2-HG concentration, apparent dissociation constant, and Hill slope, respectively. Emission spectra were recorded at 430 nm excitation, in steps of 2 nm. Excitation spectra were recorded using emission at 550 nm, excitation from 380 to 535 nm in steps of 2 nm.

[2] = tested on: LHGFR0N7C expressed in E. coli BL21(DE3); assay: Specificity of LHGFR0N7C expressed in E. coli BL21(DE3), 1 mM compounds; type: cell-based; conditions: Supplementary Fig. 13c
Description: To characterize the sensitivity and specificity of LHGFR expressed in E. coli BL21(DE3), 90 μL cell suspensions following 8 h carbon starvation were mixed with 10 μL increasing concentrations of L-2-HG or other compounds, and then added into a black 96-well plate (total 100 μL/per well), the fluorescence intensities were determined using an EnSight microplate reader (PerkinElmer, USA) and the following instrument settings: excitation at 430 nm, emission at 485 nm (mTFP) and 528 nm (Venus), time intervals of 5 min, the temperature at 37 °C, and shake at 180 rpm.

Compound | Normalized emission ratio [1] | Emission ratio (LHGFR0N3C) | normalized emission ratio of biosensor expressed in E. coli ([2]; time 0 min) | normalized emission ratio of biosensor expressed in E. coli ([2]; time 5 min) | normalized emission ratio of biosensor expressed in E. coli ([2]; time 10 min) | normalized emission ratio of biosensor expressed in E. coli ([2]; time 15 min) | normalized emission ratio of biosensor expressed in E. coli ([2]; time 20 min) | normalized emission ratio of biosensor expressed in E. coli ([2]; time 25 min) | normalized emission ratio of biosensor expressed in E. coli ([2]; time 30 min) | normalized emission ratio of biosensor expressed in E. coli ([2]; time 35 min) | normalized emission ratio of biosensor expressed in E. coli ([2]; time 40 min) | normalized emission ratio of biosensor expressed in E. coli ([2]; time 45 min) | normalized emission ratio of biosensor expressed in E. coli ([2]; time 50 min) | normalized emission ratio of biosensor expressed in E. coli ([2]; time 55 min) | normalized emission ratio of biosensor expressed in E. coli ([2]; time 60 min) | normalized emission ratio of biosensor expressed in E. coli ([2]; time 65 min) | normalized emission ratio of biosensor expressed in E. coli ([2]; time 70 min) | normalized emission ratio of biosensor expressed in E. coli ([2]; time 75 min) | normalized emission ratio of biosensor expressed in E. coli ([2]; time 80 min) | normalized emission ratio of biosensor expressed in E. coli ([2]; time 85 min) | also measured
O=C(O)CCCC(=O)O [Glutarate, glutarate] | 0.9633 and 1.016 and 1.046 | 2.055 and 2.045 and 2.058 | 1.0192 and 1.012 and 1.0143 | 1.029 and 1.007 and 0.9939 | 1.033 and 1.008 (2×) | 1.028 and 1.024 and 1.005 | 1.023 and 1.015 and 1.006 | 1.0228 and 1.021 and 1.005 | 1.026 and 1.014 and 1.016 | 1.019 and 1.016 (2×) | 1.0289 and 1.022 and 1.012 | 1.023 and 1.017 and 1.024 | 1.027 and 1.014 and 1.019 | 1.028 and 1.018 and 1.023 | 1.03 and 1.018 and 1.0254 | 1.027 and 1.013 and 1.037 | 1.027 and 1.018 and 1.0281 | 1.034 and 1.022 and 1.035 | 1.0287 and 1.026 and 1.039 | 1.03 and 1.021 and 1.038 | normalized emission ratio of biosensor expressed in E. coli ([2]; time 90 min): 1.036 and 1.0239 and 1.043
O=C(O)CC[C@@H](O)C(=O)O [D-2-HG] | 1.056 and 1.057 and 1.069 | 2.0547 and 2.056 and 2.045 | 1.005 and 1.001 and 1.025 | 1.058 and 1.062 and 1.055 | 1.088 and 1.077 and 1.073 | 1.099 and 1.097 and 1.073 | 1.1106 and 1.107 and 1.081 | 1.121 and 1.111 and 1.082 | 1.109 and 1.1104 and 1.081 | 1.129 and 1.12 and 1.084 | 1.119 and 1.117 and 1.099 | 1.1243 and 1.118 and 1.09 | 1.133 and 1.117 and 1.095 | 1.1262 and 1.1195 and 1.107 | 1.117 and 1.122 and 1.102 | 1.12 and 1.121 and 1.101 | 1.122 and 1.126 and 1.113 | 1.124 and 1.132 and 1.112 | 1.131 and 1.12 and 1.117 | 1.127 and 1.1355 and 1.123 | Influence on the response of LHGFR0N3C to L-2-HG (LHGFR0N3C; 240 μM D-2-HG, 1 mM 2-KG or 1 mM ATP for dose-response curves): could barely affect the response of LHGFR0N3C to L-2-HG; normalized emission ratio of biosensor expressed in E. coli ([2]; time 90 min): 1.127 and 1.137 and 1.122
